Data as given in patent publication US5162203A, “Methods of measuring isozymes and isozyme classes of alcohol dehydrogenase” (President and Fellows of Harvard College, priority 1989, dated 1992).

Tests used:
[1] = Spectral parameters for absorption and fluorescence of ADH substrates and products; format: physicochemical; conditions: for total decrease of molar absorptivity (aldehyde/NADH system): 340 nm, 40 mM Mes buffer, pH 7.1, with NADH
Protocol: The spectral parameters for 4-methoxy-1-naphthaldehyde (IA), 6-methoxy-2-naphthaldehyde (IIA) and their reduction products (IB and IIB, respectively) are shown in Table I.
Ultraviolet absorption spectra were measured on a Cary 219 or Hewlett-Packard 8451 spectrophotometer. Fluorescence measurements were made in a Perkin Elmer MPF3 spectrofluorometer, equipped with an Osram XBO 150 Watt Xenon lamp, an R446 photomultiplier, and thermostatted cell holder through which water was passed from a Poly-Temp circulator with the following spectrometer settings: excitation wavelength 316 nm. bandwidth 8 nm for both substrate IA and IIA; emission wavelength. 370 nm for substrate IA and 360 nm for substrate IIA, emission bandwidth 24 nm. Changes in fluorescence as a result of oxidation or reduction of the substrate was then measured in the ratio mode. Generally, for fluorometric reactions (see part 8 below). a sensitivity setting of 3 was used with compensation of fluorescence background by the zero suppression control of the instrument.
(§1) Aldehyde reduction was monitored by following the decrease of absorption at 340 nm in 40 mM Mes buffer, pH 7.1. in the presence of saturating NADH, 50 μM for Class I and 100 μM for Class II. […] Initial reaction rates were measured and kinetic parameters determined by conventional procedures as described by Segel, 1975, Enzyme Kinetics, pp. 591-597, Wiley, N.Y.

[2] = Stability of substrates and product solutions; format: physicochemical; conditions: for stability in stock solution: 20° C., 30 days, water:acetonitrile (70:30 v/v)
Protocol: The dilute solutions (300 μM) were prepared by diluting 1 ml of the stock solution to 10 ml with water.
Concentrations were determined spectrophotometrically using a molar absorptivity of 5700 M^-1 cm^-1 at 296 nm for IB and 1270 M^-1 cm^-1 at 330 nm for IIB.

[3] = target: T1, β2 β2 ADH (Class I) (Homo sapiens, UniProt P00325); assay: Kinetics of enzymatic reduction of methoxynaphthaldehydes by β2β2 ADH; format: biochemical; conditions: Table IV; nm = not measurable
T1 construct: beta2 allele (ADH1B*2)
T1 sequence (P00325 2-375): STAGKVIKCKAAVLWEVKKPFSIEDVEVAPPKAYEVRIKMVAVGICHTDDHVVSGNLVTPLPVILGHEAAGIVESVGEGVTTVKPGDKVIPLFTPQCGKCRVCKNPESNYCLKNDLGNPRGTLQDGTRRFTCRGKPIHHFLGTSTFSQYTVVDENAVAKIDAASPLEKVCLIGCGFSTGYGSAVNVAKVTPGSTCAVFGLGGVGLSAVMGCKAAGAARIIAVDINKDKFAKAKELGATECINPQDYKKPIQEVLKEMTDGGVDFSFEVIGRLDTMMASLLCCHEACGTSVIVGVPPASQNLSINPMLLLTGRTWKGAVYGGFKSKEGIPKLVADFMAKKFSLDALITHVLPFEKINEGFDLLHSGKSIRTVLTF
Protocol: as §1
All reaction mixtures (3 ml total volume) were prepared directly in 1 cm pathlength, 4 ml fluorometric cuvettes by adding 150 μl of the 300 μM substrate solution (e.g substrate IA or IIA) 100 μl of the 1 mM NADH solution (prepared as in part 5 above) and 2.69 ml of assay buffer (0.1M phosphate, pH 7.6). […]
(§2) The linear increase of fluorescence was then recorded for 1-10 minutes, until 0.03-1 μM of substrate was consumed. […] The added product fluorescence intensity was then measured Fluorescence measurements were optimized for samples with low activity (<1 nM/minute). […] Rates measured in the presence of the 0.2 mM ADH inhibitors. […]
(§3) The rates of aldehyde reduction, determined as initial velocities (V) and expressed in units of nM/minute, were calculated according to: [formula] where the quantity in parentheses is the slope of the linear fluorescence increase calculated from the quantities Ft and FO, the fluorescence at time t and at the beginning of the reaction, respectively. […]

[4] = test system: ADH in human serum (Class I); assay: Fluorometric measurement of serum ADH activity with substrate IA; format: biochemical; conditions: between-run repeatability, 2 minutes reaction, n=5
Protocol: (§4) All reaction mixtures (3 ml total volume) were prepared directly in 1 cm pathlength, 4 ml fluorometric cuvettes by adding 150 μl of the 300 μM substrate solution (e.g substrate IA or IIA) 100 μl of the 1 mM NADH solution (prepared as in part 5 above) and 2.69 ml of assay buffer (0.1M phosphate, pH 7.6). After thermal equilibration (25° C.) for 5 minutes, 60 μl of isozyme sample (either serum or purified ADH isozymes) was added to the cuvette.
as §2, with “consumed. Larger substrate consumption was not found to be desirable (described in subpart (c) below).” for “consumed.”
as §3, with “respectively. Cst is the concentration of the product used as a standard added to the cuvette after the initial rate had been measured and Fst is the fluorescence intensity of the added product” for “respectively.”

[5] = target: Class III (.chi.) ADH (Homo sapiens, UniProt P11766); assay: Kinetics of enzymatic reduction of methoxynaphthaldehydes by Class III ADH; format: biochemical
Class III (.chi.) ADH, sequence (P11766 whole entry): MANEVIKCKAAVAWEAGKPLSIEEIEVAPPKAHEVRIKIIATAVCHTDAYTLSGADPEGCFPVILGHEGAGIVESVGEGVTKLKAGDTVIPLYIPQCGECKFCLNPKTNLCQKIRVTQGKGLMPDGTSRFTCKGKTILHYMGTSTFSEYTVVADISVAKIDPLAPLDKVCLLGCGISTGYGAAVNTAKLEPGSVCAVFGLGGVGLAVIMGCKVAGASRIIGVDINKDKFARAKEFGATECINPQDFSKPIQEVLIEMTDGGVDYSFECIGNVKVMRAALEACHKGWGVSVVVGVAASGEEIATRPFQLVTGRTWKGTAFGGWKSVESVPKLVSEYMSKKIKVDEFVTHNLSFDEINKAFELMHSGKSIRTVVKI

[6] = target: ADH in human serum (Class II) (Homo sapiens, UniProt P08319); assay: Fluorometric measurement of serum ADH activity with substrate IIA; format: biochemical
ADH in human serum (Class II), sequence (P08319 whole entry): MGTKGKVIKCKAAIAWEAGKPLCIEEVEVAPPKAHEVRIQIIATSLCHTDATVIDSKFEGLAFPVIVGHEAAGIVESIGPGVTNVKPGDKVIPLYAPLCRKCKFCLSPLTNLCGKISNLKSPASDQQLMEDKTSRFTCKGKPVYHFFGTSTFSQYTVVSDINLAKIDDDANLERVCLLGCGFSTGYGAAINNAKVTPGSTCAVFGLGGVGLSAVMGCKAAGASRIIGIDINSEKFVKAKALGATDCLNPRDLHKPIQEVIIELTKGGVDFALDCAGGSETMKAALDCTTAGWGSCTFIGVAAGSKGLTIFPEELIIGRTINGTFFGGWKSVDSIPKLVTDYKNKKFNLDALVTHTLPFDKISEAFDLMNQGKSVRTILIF
Protocol: as §4
The linear increase of fluorescence was then recorded for 1-10 minutes, until 0.03-1 μM of substrate was consumed. Larger substrate consumption was not found to be desirable (described in subpart (c) below). After this period the instrument sensitivity setting was reduced 10-30 fold, the signal compensated once again by zero suppression (see part 6 above), and 60 μl of 200-400 μM product (e.g., product IB or IIB) was added to provide an internal standard. The added product fluorescence intensity was then measured Fluorescence measurements were optimized for samples with low activity (<1 nM/minute). […] Rates measured in the presence of the 0.2 mM ADH inhibitors. […]
The rates of aldehyde reduction, determined as initial velocities (V) and expressed in units of nM/minute, were calculated according to: [formula] where the quantity in parentheses is the slope of the linear fluorescence increase calculated from the quantities Ft and FO, the fluorescence at time t and at the beginning of the reaction, respectively. Cst is the concentration of the product used as a standard added to the cuvette after the initial rate had been measured and Fst is the fluorescence intensity of the added product
Using the instrumentation described in Example 1, part 7, reaction rates as low as 6.5 nM/minute for IA and 25 nM/minute for IIA were reproducible. The limits of detection, i.e.. the point at which the fluorescence change after eight minutes becomes twice the noise level, were 1 nM/minute and 5 nM/minute for the two substrates, IA and IIA, respectively. […]

Row | total decrease of molar absorptivity (aldehyde/NADH system) [1] [M⁻¹ cm⁻¹] | Absorption εmax ([1]; Mes buffer (45 mM), pH 7.0) | Absorption λmax ([1]; Mes buffer (45 mM), pH 7.0) [nm] | Fluorescence .phi. (quantum yield) ([1]; Mes buffer (45 mM), pH 7.0) | Fluorescence λmax ([1]; Mes buffer (45 mM), pH 7.0) [nm] | stability in stock solution [2] | stability in crystalline state [2] | stability of dilute aqueous solutions [2] | Km [3] | Fluorescence .phi. (quantum yield) ([1]; in methanol) | Fluorescence λmax ([1]; in methanol) [nm] | Km ([5]; Class III ADH) [µM] | Km ([5]; pH 7.0, 50 μM NADH, NR = no reaction detected) [µM] | substrate quality for Class III ADH ([5]; words) | limit of detection ([6]; fluorescence change twice noise after eight minutes) [nM/min] | lowest reproducible reaction rate ([6]; serum) [nM/min] | serum activity for IIA ([6]; thirty of thirty six hospital patient sera, average) [nM/min] | SMILES | Average rate [4] [nM/min]
1 | 18000 | 13,100 M^-1 cm^-1 | 332 | 0.003 | 420 | spectral changes were not observed | stable | much less stable | nM |  |  |  |  |  |  |  |  | COc1ccc(C=O)c2ccccc12 [IA, 4-methoxy-1-naphthaldehyde] | 144.8
2 | 12700 | 14,400 M^-1 cm^-1 | 315 | 0.22 | 450 | spectral changes were not observed | stable | much less stable |  | 0.03 | 435 | > 500 | > 500 | very poor substrate | 5 | 25 | 15 ± 7 | COc1ccc2cc(C=O)ccc2c1 [IIA, 6-methoxy-2-naphthaldehyde] | 
